Reference: ChEMBL document CHEMBL1158029, “Bisabolanes from the red alga Laurencia scoparia” (J Nat Prod, 2006)
Active and inactive are the calls of the source. The calls are words filed in the database; no cut-off is given here.

System: Nippostrongylus brasiliensis
Assay: Antihelminthic activity against L4 parasitant stage of Nippostrongylus brasiliensis
Assay type: functional, organism-based

Compound | EC50 [µM] | Activity
C=C(C[C@H](O)C=C(C)C)[C@@]1(O)CC[C@](C)(Br)[C@@H](Cl)C1 | 110 | –
C=C(C)C(O)CCC(=C)[C@@]1(O)CC[C@](C)(Br)[C@@H](Cl)C1 (relative stereo) | – | inactive
C[C@@H]1CC[C@]23[C@H]1CC[C@@]2(C)C[C@H](C)[C@]3(C)O | – | inactive
C[C@@H]1CC[C@]23[C@H]1CC[C@@]2(C)C[C@@](C)(O)[C@H]3C | – | inactive
C=C(C)C(O)CCC(=C)[C@]1(O)CC[C@](C)(Br)[C@@H](Cl)C1 (relative stereo) | – | inactive
